Patent publication US8329669B2, “Composition and method for treatment of tumors” (Sanofi, priority 2006, dated 2012)

How the values were obtained:
Type in all cases: cell-based
HCT116 cells [1] = assay: Cell-Titer Blue viability of cells expressing YFP or full length Core 1 treated with apoptosis inducers
Method: To determine whether Core 1 protected against apoptosis induced by TRAIL or through other pathways, cells were treated with several different apoptosis inducers and assayed for cell viability. Fas Ligand (FasL), also a TNFα family member which signals through Death Receptors, uses the same adaptor protein FADD to induce caspase activation and apoptosis. Cells stably expressing either yellow florescent protein (YFP) or human full length Core 1 were treated with 100 ng/ml of TRAIL or 16 ng/ml of FasL for 24 hours. Cell viability was assayed using the Cell-Titer Blue assay, where conversion of the indicator dye resazurin is used to measure the metabolic capacity of cells, an indicator of cell viability. […] Cells were then treated with two compounds which induce apoptosis through non-death receptor pathways. Camptothecin inhibits DNA topoisomerase 1, ultimately leading to DNA damage and death, while Taxotere is an inhibitor of microtubule depolymerization, which prevents cell division and leads to mitotic death.

HCT116 cells [2] = assay: Western blot for caspase activation upon TRAIL stimulation; conditions: full length Core 1 vs YFP expressing HCT116; 200 ng/ml TRAIL, 24 hours
Method: Cells stably expressing YFP or human full length Core 1 were treated for 24 hours with 200 ng/ml TRAIL, lysed, and western blotted with antibodies to several caspases. Caspase activation was detected by the cleavage of the full length pro-caspase to the smaller, active form. […] Thus, Core 1 expression inhibits the full activation of caspases 8, 9, and 3 upon TRAIL stimulation.

HCT116 cells [3] = assay: JC-1 mitochondrial membrane potential assay (FACS)
Method: As Core 1 is a subunit of the mitochondrial respiratory Complex III, work was conducted to determine whether expression of Core 1 protects against mitochondrial depolarization, a critical step in mitochondrial mediated apoptosis. Changes in mitochondrial membrane potential during TRAIL treatment were studied using the JC-1 Assay Kit (Molecular Probes). JC-1 (5, 5′,6,6′,-tetrachloro-1,1′,3,3′-tetraethylbenzimidazolylcarbocyanine) is a cationic dye which has a diffuse green fluorescence in the cytoplasm. The accumulation of JC-1 in the mitochondria, which depends on intact, polarized mitochondria, results in the formation of red fluorescent aggregates. The ratio of green to red fluorescence was measured for the cells described in Example 2 above by Fluorescence-activated Cell Sorter (FACS) analysis. FACS is a method to sort cells based on specific cellular surface markers (e.g., red or green fluorescence). The above ratio is plotted as a percentage of polarized mitochondria.

HCT116 cells [4] = assay: Cytochrome c release into the cytoplasmic fraction (ELISA); conditions: 100 ng/ml TRAIL, 24 hours
Method: HCT116 cells stably expressing YFP or human full length Core 1 were treated with 100 ng/ml TRAIL for 24 hours. Control cells stably expressing YFP or human full length Core 1 were not treated with TRAIL. The cells were then harvested. Media containing floating cells was first removed to new tubes. The remaining adherent cells were detached using a cell scraper in ice-cold PBS and added to the media containing floating cells. The cells were pelleted by centrifuging at 1000×g for 10 minutes at 4° C. and resuspended in an iso-osmotic buffer (0.3M sucrose, 10 mM Tris pH 7.5, 1 mM EDTA, EDTA-free protease tablet). After a five minute incubation on ice, the cells were lysed using dounce homogenizers until about 90% of the plasma membranes were lysed. This was done to isolate the cytoplasmic fraction. The extent of cell lysis was monitored by mixing 10 μl of lysate with trypan blue and viewed on a hemocytometer. […] The concentration of lysates was determined using either the BioRad DC protein assay (BioRad) or the BCA method (Pierce, Rockford, Ill.). To quantitatively detect cytochrome c levels, lysates were assayed for cytochrome c using a Function ELISA cytochrome c kit (Active Motif, Carlsbad, Calif.) [FIG. 3B]. In untreated cells, low baseline levels of cytochrome c were detected in the cytoplasm.

HCT116 cells [5] = assay: Annexin V apoptosis assay (FACS) after TRAIL treatment; conditions: 50 ng/ml TRAIL
Method: To further characterize the ability of Core 1 to protect against TRAIL-induced apoptosis, the pEYK vector containing the partial cDNA of UQCRC1 isolated from the screen was used to directly infect HCT116 cells. Cells expressing dominant-negative FADD (dnFADD), which inhibits the signal from the TRAIL receptors, was used as a control. Cells were treated for 48 hours with 0, 10 or 50 ng/mL of TRAIL and assayed for Annexin V, an early marker of apoptosis [FIG. 2A]. Expression of dnFADD inhibited TRAIL-induced apoptosis, with 78% of cells Annexin V negative or non-apoptotic at 50 ng/ml TRAIL.
To confirm that the protection observed from the partial Core 1 protein is indicative of its function, the full length human Core 1 protein was cloned into the pLenti-vector (containing a HA-tag) and used to infect HCT116 to produce a stable cell line expressing Core 1. A control cell line was prepared similarly to express Yellow Fluorescent Protein (YFP). To confirm the protein expression of full length Core 1, cells were homogenized to prepare a mitochondrial and cytoplasmic lysate and western blotted with antibodies to Core 1 [FIG. 2C]. The endogenous Core 1 is detected in the mitochondrial fraction of both YFP and Core 1 expressing cells. Exogenously expressed Core 1 is HA-tagged and is detected as a higher migrating band in the mitochondrial fraction, as well as the cytoplasmic fraction. […] Thus, Core 1 is expressed in these HCT116 stable cell lines. To determine if full length Core 1 also protects against TRAIL-induced apoptosis, cells were treated with TRAIL and assayed for apoptosis by FACS analysis for cells that were Annexin V positive or negative.

## CC(=O)O[C@@]12CO[C@@H]1C[C@H](O)[C@@]1(C)C(=O)[C@H](O)C3=C(C)[C@@H](OC(=O)[C@H](O)[C@@H](NC(=O)OC(C)(C)C)c4ccccc4)C[C@@](O)([C@@H](OC(=O)c4ccccc4)[C@H]21)C3(C)C [Taxotere]
HCT116 cells [1]; 10 nM Taxotere in dimethyl sulfoxide
  difference in viability between cells expressing YFP or full length Core 1: No difference in viability

## TRAIL: recombinant human TRAIL (BioMol), member of the TNF superfamily that induces apoptosis
HCT116 cells [2]
  caspase 8 activation: less active caspase 8
  caspase 9 and caspase 3 activation: reduced activation
HCT116 cells [3]; HCT116 expressing GFP, 50 ng/ml TRAIL
  polarized mitochondria remaining: 7%
HCT116 cells [3]; HCT116 expressing dnFADD, all concentrations of TRAIL
  mitochondrial depolarization: completely protected
HCT116 cells [3]; HCT116 expressing partial Core 1, 50 ng/ml TRAIL
  polarized mitochondria: 38%
HCT116 cells [3]; partial Core 1 vs GFP expressing cells, 50 ng/ml TRAIL
  protection from mitochondrial depolarization over GFP: 5 fold
HCT116 cells [4]; HCT116 expressing YFP, vs untreated
  increase in cytochrome c released into the cytoplasmic fraction: 10 fold
HCT116 cells [4]; HCT116 expressing full length Core 1
  cytochrome c released, relative to YFP cells: only one-half as much
HCT116 cells [5]; HCT116 expressing GFP, 48 hours
  cells Annexin V negative: 2%
HCT116 cells [5]; HCT116 expressing dnFADD, 48 hours
  cells Annexin V negative or non-apoptotic: 78%
HCT116 cells [5]; HCT116 expressing partial Core 1, 48 hours
  cells Annexin V negative: 14.5%
HCT116 cells [5]; full length Core 1 vs YFP expressing cells
  protection against TRAIL-induced apoptosis: 2.5 fold
HCT116 cells [5]; partial Core 1 vs GFP expressing cells
  increase in protection from TRAIL induced apoptosis: 7 fold

## CC[C@@]1(O)C(=O)OCc2c1cc1n(c2=O)Cc2cc3ccccc3nc2-1 [Camptothecin]
HCT116 cells [1]; 200 nM Camptothecin in dimethyl sulfoxide
  difference in viability between cells expressing YFP or full length Core 1: No difference in viability

B1: FasL: Fas Ligand, TNFα family member which signals through Death Receptors (protein, UniProt P48023 130-281, looked up)
Tumor necrosis factor ligand …: QIGHPSPPPEKKELRKVAHLTGKSNSRSMPLEWEDTYGIVLLSGVKYKKGGLVINETGLYFVYSKVYFRGQSCNNLPLSHKVYMRNSKYPQDLVMMEGKMMSYCTTGQMWARSSYLGAVFNLTSADHLYVNVSELSLVNFEESQTFFGLYKL
HCT116 cells [1]; Core 1 vs YFP expressing cells, 16 ng/ml FasL, 24 hours
  protection from FasL induced apoptosis by Core 1 expression: about a three-fold protection
